ChEMBL document CHEMBL1157539, “Thousands of chemical starting points for antimalarial lead identification” (Nature, 2010)

System: Plasmodium falciparum
Assay: GSK_TCMDC: Inhibition of Plasmodium falciparum 3D7 in whole erythrocytes, using parasite LDH activity as an index of growth.
Assay type: functional, organism-based
Conditions: Plasmodium falciparum, 3D7

| SMILES | XC50 |
| --- | --- |
| COC(=O)c1cccc(CNCc2ccc(-c3ccc(-c4nc5cc(C(F)(F)F)ccc5[nH]4)s3)cc2)c1 | 157 nM |
| COc1cc(CNC[C@@H](O)[C@H](Cc2ccccc2)NC(=O)c2cc(OC(C)C)cc(N3CCCCS3(=O)=O)c2)cc(OC)c1 | 590 nM |
| Nc1nc2c(ncn2OC[C@H]2COP(=O)(O)CO2)c(=O)[nH]1 | 569 nM |
| CC(=O)CSC(C=Cc1ccc(N(C)C)cc1)=Nc1ccccc1 | 1120 nM |
| CC1CCN(C(=O)C(Cc2c[nH]c3ccccc23)NS(=O)(=O)c2ccc(Cl)cc2)CC1 (stereo unspecified) | 717 nM |
| CCOc1cc(C)ccc1C1CCN(CCCCNC(=O)c2ccc(NC(=O)c3cc(Cl)cc(Cl)c3)cc2)CC1 | 355 nM |
| Nc1ccc(Nc2ccnc3ccc(C(F)(F)F)cc23)cc1O | 716 nM |
| O=C(/C=C/c1ccc(Cl)c(Cl)c1)NCCCCCN1CCCN(C(=S)Nc2cccc(Cl)c2)CC1 | 1050 nM |
| Cc1cc(N2CCC(NS(=O)(=O)c3ccc(F)cc3)CC2)nc(Nc2cccc(C#N)c2)n1 | 651 nM |
| O=C(/C=C/c1ccc(F)c(C(F)(F)F)c1)N1CCC(CN2CCC(c3c[nH]c4ccccc34)CC2)CC1 | 917 nM |
| COC(=O)c1ccc(C[C@@H](C)NC[C@H](O)c2cccc(C(F)(F)F)c2)cc1 | 790 nM |
| Nc1nc(N)c2c(Oc3cccc4ccccc34)cccc2n1 | 1010 nM |
| CN(C)c1ccc(CN2CCC(NC(=O)c3ccc(-c4ccc(N(C)C)cc4)s3)CC2)cc1 | 1070 nM |
| Cc1cccc2nc(-c3cccc(-c4cccc(C(=O)NCCc5cn(C)cn5)c4)c3)[nH]c12 | 588 nM |
| Oc1ccc(Cl)cc1-c1cc(C(F)(F)F)nc(-c2ccccc2)n1 | 753 nM |
| Cc1ccc(NC(=O)N2CCCN(CCCCCNC(=O)/C=C/c3ccc(Cl)c(Cl)c3)CC2)cc1C | 773 nM |
| CCn1cnc2c(Nc3cccc([N+](=O)[O-])c3)nc(N3CCC(N4CCCCC4)CC3)nc21 | 954 nM |
| CS(=O)(=O)CCNCc1nc(-c2ccc3c(Nc4ccc(Cl)cc4F)ccnc3c2)cs1 | 1080 nM |
| O=C(N[C@@H](CC1CCCCC1)C(=O)NC1CCCc2ccccc21)c1ccc(O)c(-c2cccc(C(F)(F)F)c2)c1 (stereo partly specified) | 600 nM |
| CC(NC(=O)c1ccc(O)c(-c2ccc(Cl)c(Cl)c2)c1)C(=O)NC1CCCCC1 (stereo unspecified) | 844 nM |
| CN1CCC(N2CCN(Cc3ccc(-c4cccc(-c5nc6cc(F)ccc6[nH]5)c4)cc3)CC2)CC1 | 173 nM |
| S=C(NCCCCCN1CCC(c2c[nH]c3ccccc23)CC1)Nc1cc(Cl)cc(Cl)c1 | 868 nM |
| O=C(Nc1ccc(-c2ccccc2)cc1)Nc1cccc(Cn2cnc(N3CCCNCC3)cc2=O)c1 | 1080 nM |
| O=C(Nc1ccc(-c2ccc(-c3nc4cc(C(F)(F)F)ccc4[nH]3)s2)cc1)c1ccoc1 | 854 nM |

| SMILES | XC50 |
| --- | --- |
| CCC(CO)NCC(O)Cn1c2ccc(Br)cc2c2cc(Br)ccc21 (stereo unspecified) | 783 nM |
| CC(C)c1ccc(-c2noc(SCC(=O)N(C)c3ccc(F)cc3)n2)cc1 | 1170 nM |
| CCCC(C)C(=O)N1CCOC(COCc2cccc(C(F)(F)F)c2)(c2ccc(Cl)cc2)C1 (stereo unspecified) | 403 nM |
| Cc1cc(=NN=Cc2ccccc2Cl)c2cccc(C)c2[nH]1 | 705 nM |
| O=C(/C=C/c1ccc(Cl)c(Cl)c1)NC1CCN(Cc2cccc(O)c2)CC1 | 880 nM |
| CCCCCCCCCN1CC[C@@H](CCCc2ccnc3ccc(O)cc23)[C@@H](CC)C1 | 290 nM |
| Cc1cc(N[C@@H](Cc2ccccc2)C(=O)NCCOc2ccccc2)nc(NCCc2cccs2)n1 | 997 nM |
| N#Cc1ccc(N/C(=N\c2cccc(Cl)c2Cl)NCc2ccc(Cl)cc2Cl)c(O)c1 | 1120 nM |
| CC(C)C[C@H](Nc1ccnc(NCC2CCCCC2)n1)C(=O)NCCc1ccccc1 | 750 nM |
| CCC(C)OC(=O)C1=C(C)NC2=C(C(=O)CC(c3ccc(OC)c(OC)c3)C2)C1c1ccc(O)cc1 (stereo unspecified) | 218 nM |
| Cc1ccc(C)c(S(=O)(=O)Nc2ccc(Br)cc2C(=O)Nc2cccc(C(F)(F)F)c2)c1 | 1210 nM |
| FC(F)(F)c1ccc2[nH]c(-c3ccc(-c4ccc(CN5CCN(c6cnccn6)CC5)cc4)cc3)nc2c1 | 687 nM |
| CCCc1ccc(C2CCN(CCCCNC(=O)c3ccc(NC(=O)c4ccc(Cl)cc4)cc3)CC2)cc1 | 628 nM |
| CC(CCc1ccccc1)NCC(O)c1ccc2c3c(cccc13)S(=O)(=O)N2C (stereo unspecified) | 627 nM |
| CN(C)C(=O)c1ccc(CN(Cc2cccc(OC(C)(C)C)c2)Cc2ccc3c(c2)OCCO3)cc1 | 571 nM |
| Cc1ccc(CC(C)NCC(O)c2cccc(C#N)c2)cc1 (stereo unspecified) | 944 nM |
| COc1ccccc1CN1CCC(NC(=O)c2ccc(-c3cccc(C(F)(F)F)c3)s2)CC1 | 1310 nM |
| CC(C)(O)CC(C)(C)c1cc(Cl)ccc1O | 455 nM |
| O=c1c2ccccc2[nH]c2nc3ccccc3c(Nc3ccccc3)c12 | 141 nM |
| Cc1ccc(CN2CCN(Cc3cccc(NC(=O)c4ccc5ccccc5c4)c3)CC2)cc1C | 1220 nM |
| CCOC(=O)c1ccc(NC(=O)Nc2cccc(-c3ccc(-c4nc5cc(F)ccc5[nH]4)cc3)c2)cc1 | 94.5 nM |
| Cc1onc(-c2ccccc2)c1-c1nc(NCCC(c2ccccc2)c2ccccc2)no1 | 835 nM |
| Nc1ncnc2cc(-c3cccc(S(N)(=O)=O)c3)sc12 | 151 nM |
| COc1ccc(CNCc2cccc(-c3ccc(-c4nc5cc(C(F)(F)F)ccc5[nH]4)cc3)c2)cc1 | 126 nM |

| SMILES | XC50 |
| --- | --- |
| CC(=O)Nc1cccc(C(=O)Nc2cccc(-c3ccc(-c4nc5cc(F)ccc5[nH]4)s3)c2)c1 | 896 nM |
| Cc1cc(O)c(CNC2CCCCC2)cc1C | 1050 nM |
| COc1cc(F)c2ncc(Cl)c([C@H](O)CN3CCC(NCc4ccc5c(n4)NC(=O)CO5)CC3)c2c1 | 161 nM |
| Nc1nc(N)c2c(ccc3c2ccn3Cc2ccc(OCc3ccccc3)cc2)n1 | 933 nM |
| COc1ccc(O)c(-c2sc(N=C(N)N)nc2-c2ccccc2)c1 | 372 nM |
| CCc1ccc(S(=O)(=O)Nc2cccc(CCN3CCC(N4CCCCC4)CC3)c2)cc1 | 898 nM |
| O=C(Cc1ccccc1)NC(c1ccc(Cl)cc1)c1ccc2cccnc2c1O (stereo unspecified) | 861 nM |
| Cc1c(C)c2c(c(C)c1O)CC[C@@](C)(C(=O)N1CCC(CCN3CCC(c4c[nH]c5ccccc45)CC3)CC1)O2 | 666 nM |
| CCC(C)(C)NC(C)C(O)c1ccc(C(F)(F)F)cc1 (stereo unspecified) | 750 nM |
| CC(C)C[C@H](NC(=O)c1cc2ccccc2s1)C(=O)N[C@H]1CCN(Cc2ccc(OCCCN(C)C)c(Cl)c2)C1 | 901 nM |
| CCCCCCCC1CC(CC(=O)Nc2ccnc3ccc(OC)cc23)CN1 (stereo unspecified) | 511 nM |
| CNc1ccc(CNCc2cccc(-c3ccc(-c4nc5cccc(C)c5[nH]4)cc3)c2)cc1 | 660 nM |
| O=C(NC1CCC(CCN2Cc3cccc(F)c3C2)CC1)c1cccc(-c2cccnc2)c1 (stereo unspecified) | 300 nM |
| COc1ccc(CN2CCCN(Cc3cccc(NC(=O)c4cc5ccccc5s4)c3)CC2)cc1 | 842 nM |
| Cc1[nH]c2ccccc2c1C1CCN(CC2CCC(NC(=O)/C=C/c3ccc(Cl)c(Cl)c3)CC2)CC1 (stereo unspecified) | 822 nM |
| Nc1c2ccccc2nc2ccc(-c3ccccc3)cc12 | 140 nM |
| N=C(N)c1ccc(NN=Cc2ccc(Oc3ccc(C(=N)N)cc3)cc2)cc1 | 90.2 nM |
| O=C(Nc1ccccc1Br)N[C@@H]1CCN(c2ccnc3ccccc23)C1 | 935 nM |
| O=C(Nc1ccc(C(F)(F)F)cc1)c1ccc(S(=O)(=O)NC2CCN(CC3CCCCC3)CC2)cc1 | 731 nM |
| COc1ccc(-n2nc(C)c3c2NC(=O)CC3c2ccccc2OCc2ccccc2F)cc1 (stereo unspecified) | 901 nM |
| CCOC(=O)c1ccc(NC(=O)Nc2ccc(-c3ccc(-c4nc5cc(C(F)(F)F)ccc5[nH]4)cc3)cc2)cc1 | 273 nM |
| CN1CCC(c2nc(N)no2)C1 (stereo unspecified) | 975 nM |
| C/C(=C\C(=O)NC1CC1)c1ccccc1OCc1ccccc1 | 504 nM |
